We go through one substance from US20200338144A1, “AGENT FOR PREVENTING OR TREATING SMALL INTESTINAL INJURY INDUCED BY NON-STEROIDAL ANTI-INFLAMMATORY DRUG AND PROTON PUMP INHIBITOR” (priority 2017, published 2020).

The test has as its system small intestinal injury induced by an NSAID and a PPI. Kind of test: Test 1: rate of change of hematocrit values in rats given an NSAID and a PPI. The following applies: bacteria 1×10^9 cfu/animal oral once a day. The format is in vivo, Wister male rats. As for the experimental part:
Frozen stocks of the following bacterial strains were statically cultured in GAM broth at 37° C. for 24 hours: the Bifidobacterium bifidum G9-1 strain (B. bifidum G9-1) (Accession No. NITE BP-817), the Bifidobacterium longum reference strain JCM 1217^T (B. longum JCM 1217) (purchased from Japan Collection of Microorganisms (JCM), RIKEN BioResource Research Center), the Bifidobacterium infantis reference strain JCM 1222^T (B. infantis JCM 1222) (purchased from JCM), the Bifidobacterium adolescentis reference strain JCM 1275^T (B. adolescentis JCM 1275) (purchased from JCM), and the Bifidobacterium dentium reference strain JCM 1195^T (B. dentium JCM 1195) (purchased from JCM). Each of the bacterial liquid cultures was inoculated into fresh GAM broth at a ratio (by volume) of liquid culture to GAM broth of 1:100, and statically cultured at 37° C. for 24 hours. […]
The centrifuged bacterial cells were suspended in 0.75 mL of physiological saline. […] The colonies appeared on the plates were counted, and the number of viable bacteria was calculated based on the dilution factor. […]
At the start of the experiments, the blood was collected from the tail vein with hematocrit capillary tubes (Thermo Fisher Scientific K.K.) to measure hematocrit values. […] After grouping, the body weight of the animals was measured for nine days, and one of the PPIs (10 mg/kg) was intraperitoneally administered twice a day. […]

Bifidobacterium longum: the “inhibitory effect on small intestinal injury (hematocrit reduction) induced by ibuprofen and lansoprazole” value (ibuprofen 10 mg/kg oral + lansoprazole 10 mg/kg i.p. twice a day, FIG. 7) is “higher inhibitory effect”. Also, the “inhibitory effect on small intestinal injury (hematocrit reduction) induced by ibuprofen and omeprazole” value (ibuprofen 10 mg/kg oral + omeprazole 10 mg/kg i.p. twice a day, FIG. 4 (n=5)) is “higher inhibitory effect”.
